ChEMBL document CHEMBL5505997, “Synthesis and biological evaluation of novel peptidomimetic inhibitors of the coronavirus 3C-like protease” (Eur J Med Chem, 2024)

How the values were obtained:
Human coronavirus OC43 = assay: Antiviral activity against Human coronavirus OC43 infected in Vero cells assessed as reduction in viral yield preincubated with virus for 1 hr followed by washout and compound treatment and measured after 3 days by qRT-PCR analysis; assay type: functional, organism-based; conditions: Betacoronavirus 1, Vero; for EC90: 72 h, time 3 day
CCRF-CEM = assay: Cytotoxicity against human CEM cells assessed as reduction in cell viability; assay type: toxicity, cell-based; conditions: ccrf-cem
[1] = Cytotoxicity against human PBMC cells assessed as reduction in cell viability; assay type: toxicity, cell-based; conditions: pbmc
[2] = Cytotoxicity against African green monkey Vero cells assessed as reduction in cell viability; assay type: toxicity, cell-based; conditions: chlorocebus sabaeus, vero
SARS-CoV-2 [3] = assay: Antiviral activity against SARS-CoV-2 infected in Vero cells assessed as reduction in viral yield measured after 48 hrs by qRT-PCR analysis; assay type: functional, organism-based; conditions: Severe acute respiratory syndrome coronavirus 2, Vero; for EC50: 48 h; for EC90: time 48 hrs
Huh-7 = assay: Cytotoxicity against human Huh-7 cells assessed as reduction in cell viability; assay type: toxicity, cell-based; conditions: huh-7
SARS-CoV-2 [4] = assay: Antiviral activity against SARS-CoV-2 infected in human Caco-2 cells assessed as reduction in viral yield measured after 72 hrs by qRT-PCR analysis; assay type: functional, organism-based, Severe acute respiratory syndrome coronavirus 2; conditions: for EC90: Severe acute respiratory syndrome coronavirus 2, Caco-2, time 72 hrs
Caco-2 = assay: Cytotoxicity against human Caco-2 cells assessed as reduction in cell viability; assay type: toxicity, cell-based; conditions: caco-2
Calu-3 = assay: Cytotoxicity against human Calu-3 cells assessed as reduction in cell viability; assay type: toxicity, cell-based; conditions: calu-3
SARS-CoV-2 [5] = assay: Antiviral activity against SARS-CoV-2 infected in human Calu-3 cells assessed as reduction in viral yield measured after 72 hrs by qRT-PCR analysis; assay type: functional, organism-based, Severe acute respiratory syndrome coronavirus 2; conditions: for EC90: Severe acute respiratory syndrome coronavirus 2, Calu-3, time 72 hrs
SARS-CoV-2 [6] = assay: Antiviral activity against SARS-CoV-2 hCoV-19/USA/GA-EHC-2811C/2021 (Omicron B.1.1.529) infected in human Calu-3 cells assessed as reduction in viral yield measured after 48 hrs by qRT-PCR analysis; assay type: functional, organism-based; conditions: Severe acute respiratory syndrome coronavirus 2, hCoV-19/USA/GA-EHC-2811C/2021 (Omicron B.1.1.529); for EC50: Calu-3, 48 h; for EC90: Calu-3, time 48 hrs
[7] = Solubility of compound in PBS; assay type: physicochemical; conditions: buffer
SARS-CoV-2 [8] = assay: Selectivity ratio of EC50 for antiviral activity against SARS-CoV-2 infected in Vero cells to EC50 for antiviral activity against SARS-CoV-2 infected in human Caco-2 cells; assay type: functional, Severe acute respiratory syndrome coronavirus 2
SARS-CoV-2 [9] = assay: Selectivity ratio of EC50 for antiviral activity against SARS-CoV-2 infected in Vero cells to EC50 for antiviral activity against SARS-CoV-2 infected in human Calu-3 cells; assay type: functional, Severe acute respiratory syndrome coronavirus 2
SARS-CoV-2 [10] = assay: Antiviral activity against SARS-CoV-2 hCoV-19/USA-WA1/2020 Washington strain infected in Normal human bronchial/tracheal epithelial cells cultured in air-liquid interface media assessed as reduction in viral yield pretreated with compound followed by viral infection for 4 hrs post washout and measured 3 days after virus removal by qRT-PCR analysis; assay type: functional, organism-based; conditions: Severe acute respiratory syndrome coronavirus 2, hCoV-19/USA-WA1/2020 Washington, Epithelial cell
[11] = target: Replicase polyprotein 1ab (Severe acute respiratory syndrome coronavirus 2) (UniProt P0DTD1); assay: Potency index, ratio of nirmatrelvir IC50 to test compound IC50 for inhibition of amino-terminal His-SUMO tagged SARS-CoV-2 3CLpro using HilyteFluor 488-Glu-Ser-Ala-Thr-Leu-Gln-Ser-Gly-Leu-Arg-Lys-Ala-Lys-QXL 520 as FRET peptide substrate preincubated for 90 mins followed by substrate addition and measured over 30 mins by continuous FRET assay; conditions: time > 120.0 min
[12] = Metabolic stability in human liver microsomes assessed as half life at 1 uM measured after 0 to 90 mins by LC-MS/MS analysis; assay type: ADME, Microsome; conditions: time 0-90 min
[13] = Metabolic stability in human liver microsomes assessed as half life at 1 uM incubated for 90 mins in presence of ritonavir at 1:10 combination by LC-MS/MS analysis; assay type: ADME, Microsome; conditions: 1.5 h
SARS-CoV-2 [14] = assay: Antiviral activity against wild type SARS-CoV-2 Omicron BA.1 infected in HEK293T cells measured after 48 hrs by Nano-Glo luciferase assay; assay type: functional, organism-based; conditions: Severe acute respiratory syndrome coronavirus 2, Omicron BA.1, HEK-293T
SARS-CoV-2 [15] = assay: Antiviral activity against wild type SARS-CoV-2 WA1 infected in HEK293T cells measured after 48 hrs by Nano-Glo luciferase assay; assay type: functional, organism-based; conditions: Severe acute respiratory syndrome coronavirus 2, WA1, HEK-293T
[16] = Metabolic stability in human liver microsomes assessed as reduction in decay rate at 1 uM incubated for 90 mins in presence of ritonavir by LC-MS/MS analysis; assay type: ADME, Microsome; conditions: 1.5 h
[17] = target: Replicase polyprotein 1ab (Severe acute respiratory syndrome coronavirus 2, UniProt P0DTD1); assay: Inhibition of amino-terminal His-SUMO tagged SARS-CoV-2 3CLpro using HilyteFluor 488-Glu-Ser-Ala-Thr-Leu-Gln-Ser-Gly-Leu-Arg-Lys-Ala-Lys-QXL 520 as FRET peptide substrate preincubated for 90 mins followed by substrate addition and measured over 30 mins by continuous FRET assay
[18] = target: Replicase polyprotein 1ab (Severe acute respiratory syndrome coronavirus 2) (UniProt P0DTD1); conditions: time 60.0 min
[19] = Metabolic stability in human liver microsomes assessed as half life at 1 uM incubated for 90 mins in presence of ritonavir at 1:1 combination by LC-MS/MS analysis; assay type: ADME, Microsome; conditions: 1.5 h
[20] = target: Replicase polyprotein 1ab (Severe acute respiratory syndrome coronavirus 2) (UniProt P0DTD1); assay: Binding affinity to SARS-CoV-2 3CLpro assessed as thermal stabilization by measuring fold increase in melting temperature incubated for 60 mins by SYPRO orange dye based thermal shift assay relative to nirmatrelvir
[21] = target: Replicase polyprotein 1ab (Severe acute respiratory syndrome coronavirus 2) (UniProt P0DTD1); conditions: time 60.0 min; remark: listed apart in the source

CC(C)C[C@H](NC(=O)[C@H](Cc1ccc(F)cc1)NC(=O)OCc1ccccc1)C(=O)N[C@H](C=O)C[C@@H]1CCCNC1=O
EC50 (Human coronavirus OC43): 0.8 µM
EC90 (Human coronavirus OC43): 2.6 µM
CC50 (CCRF-CEM): > 100 µM
CC50 [1]: > 100 µM
CC50 [2]: > 100 µM
EC50 (SARS-CoV-2 [3]): 6.7 µM
EC90 (SARS-CoV-2 [3]): 7.4 µM
CC50 (Huh-7): > 100 µM

Cc1cc(C(=O)N[C@@H](Cc2cccc3ccccc23)C(=O)N[C@@H](CC(C)C)C(=O)N[C@@H](C[C@@H]2CCCNC2=O)C(O)S(=O)(=O)[O-])no1.[Na+] (stereo partly drawn)
EC50 (Human coronavirus OC43): 0.3 µM
EC90 (SARS-CoV-2 [4]): 1.7 µM
CC50 (CCRF-CEM): 24.3 µM
CC50 (Caco-2): > 100 µM
CC50 (Calu-3): > 100 µM
CC50 [1]: 58.6 µM
CC50 [2]: > 100 µM
EC50 (SARS-CoV-2 [5]; Severe acute respiratory syndrome coronavirus 2, Calu-3, 72 h): 1.2 µM
EC90 (SARS-CoV-2 [5]): 5.3 µM
EC50 (SARS-CoV-2 [6]): 0.8 µM
EC90 (SARS-CoV-2 [6]): 2.7 µM
solubility [7]: 400 µg/mL
EC50 (SARS-CoV-2 [3]): 4.5 µM
EC90 (SARS-CoV-2 [3]): 9.3 µM
Ratio EC50 (SARS-CoV-2 [8]): 15
Ratio EC50 (SARS-CoV-2 [9]): 3
EC50 (SARS-CoV-2 [10]): 0.4 µM
EC90 (SARS-CoV-2 [10]): 0.7 µM
CC50 (Huh-7): 51.1 µM

Cc1cc(C(=O)N[C@@H](Cc2cccc3ccccc23)C(=O)N[C@@H](CC(C)C)C(=O)N[C@H](C=O)C[C@@H]2CCCNC2=O)no1
Ratio IC50 [11]: 2
EC50 (Human coronavirus OC43): 0.1 µM
EC90 (Human coronavirus OC43): 0.7 µM
EC50 (SARS-CoV-2 [4]; Severe acute respiratory syndrome coronavirus 2, Caco-2, 72 h): 0.1 µM
EC90 (SARS-CoV-2 [4]): 1.2 µM
t1/2 [12]: < 5 min
CC50 (CCRF-CEM): 13.9 µM
CC50 (Caco-2): > 100 µM
t1/2 [13]: > 1.5 h
CC50 (Calu-3): > 100 µM
CC50 [1]: 30.9 µM
EC50 (SARS-CoV-2 [14]): 0.32 µM
CC50 [2]: 84.3 µM
EC50 (SARS-CoV-2 [15]): 0.2 µM
EC90 (SARS-CoV-2 [5]): 4.3 µM
EC50 (SARS-CoV-2 [6]): 1.1 µM
EC90 (SARS-CoV-2 [6]): 3.5 µM
solubility [7]: < 10 µg/mL
EC50 (SARS-CoV-2 [3]): 4.6 µM
EC90 (SARS-CoV-2 [3]): 9 µM
Ratio EC50 (SARS-CoV-2 [8]): 15
Stability [16]: Stable
IC50 [17]: 0.166 µM
Tm [18]: 69.9 °C
t1/2 [19]: > 1.5 h
fold change (FC) [20]: 2
Ratio EC50 (SARS-CoV-2 [9]): 3
EC50 (SARS-CoV-2 [10]): 0.6 µM
EC90 (SARS-CoV-2 [10]): 1.8 µM
ΔTm [21]: 13.9 °C
CC50 (Huh-7): 32.7 µM

Cc1cc(C(=O)N[C@@H](Cc2cccc3ccccc23)C(=O)N[C@@H](CC(C)C)C(=O)N[C@@H](C[C@@H]2CCCNC2=O)C(O)C(=O)NC2CC2)no1 (stereo partly drawn)
EC50 (Human coronavirus OC43): 36.7 µM
EC90 (Human coronavirus OC43): 87.4 µM
CC50 (CCRF-CEM): > 100 µM
CC50 [1]: > 100 µM
CC50 [2]: > 100 µM
EC50 (SARS-CoV-2 [3]): > 10 µM
EC90 (SARS-CoV-2 [3]): > 10 µM
CC50 (Huh-7): > 100 µM

CC(C)C[C@H](NC(=O)[C@H](Cc1ccc(O)cc1)NC(=O)OCc1ccccc1)C(=O)N[C@H](C=O)C[C@@H]1CCCNC1=O
EC50 (Human coronavirus OC43): 8.5 µM
EC90 (Human coronavirus OC43): 47.6 µM
CC50 (CCRF-CEM): > 100 µM
CC50 [1]: > 100 µM
CC50 [2]: > 100 µM
EC50 (SARS-CoV-2 [3]): > 10 µM
EC90 (SARS-CoV-2 [3]): > 10 µM
CC50 (Huh-7): > 100 µM

CC(C)C[C@H](NC(=O)[C@H](Cc1cccc2ccccc12)NC(=O)OCc1ccccc1)C(=O)N[C@H](C=O)CNC(=O)N1CCC1
EC50 (Human coronavirus OC43): 18 µM
EC90 (Human coronavirus OC43): 84 µM
CC50 (CCRF-CEM): 43.6 µM
CC50 [1]: > 100 µM
CC50 [2]: > 100 µM
EC50 (SARS-CoV-2 [3]): > 10 µM
EC90 (SARS-CoV-2 [3]): > 10 µM
CC50 (Huh-7): 43.6 µM

CC(C)C[C@H](NC(=O)[C@H](Cc1cccc2ccccc12)NC(=O)OCc1ccccc1)C(=O)N[C@H](C=O)C[C@@H]1CCCNC1=O
EC50 (Human coronavirus OC43): 0.7 µM
EC90 (Human coronavirus OC43): 1 µM
CC50 (CCRF-CEM): 24.3 µM
CC50 [1]: 42.4 µM
CC50 [2]: > 100 µM
EC50 (SARS-CoV-2 [3]): 2.6 µM
EC90 (SARS-CoV-2 [3]): 5.9 µM
CC50 (Huh-7): 38.9 µM

CCOC(=O)/C=C/[C@H](C[C@@H]1CCCNC1=O)NC(=O)[C@H](CC(C)C)NC(=O)[C@H](Cc1cccc2ccccc12)NC(=O)c1cc(C)on1
EC50 (Human coronavirus OC43): 7.3 µM
EC90 (Human coronavirus OC43): 9.7 µM
CC50 (CCRF-CEM): 33.4 µM
CC50 [1]: > 100 µM
CC50 [2]: > 100 µM
EC50 (SARS-CoV-2 [3]): > 10 µM
EC90 (SARS-CoV-2 [3]): > 10 µM
CC50 (Huh-7): 51.4 µM
